From US20090253709A1 (NATIONAL DEFENSE MEDICAL CENTER, priority 2008, published 2009)
Where two headings read alike, the source gives them in different places.

Assays:
MTT assay in H1299 cells = format: cell-based; conditions: human, H1299 cells (H1299/PhTERT-driven SEAP reporter system), H1299, read-out: MTT (Inhibition μM ± SD); for viability at 24 h, 1 µM: compound concentration 1 μM; for viability at 24 h, 10 µM: compound concentration 10 μM; for viability at 24 h, 100 µM: compound concentration 100 μM
Method in brief: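 H1299 cells, 2×10^3 per well, treated with drug 48 h. MTT (5 mg/ml stock) added for 4 h at 37° C, then SDS/DMF lysis overnight; absorbance at 570 nm gives viability, used alongside SEAP reporter readout to correct for cell number.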

MTT assay in BJ1 cells = format: cell-based; conditions: human, hTERT-BJ1-PTERT(3.4)-SEAP cells, BJ1, read-out: MTT (Inhibition μM ± SD); for viability at 48 h, 1 µM: compound concentration 1 μM; for viability at 48 h, 10 µM: compound concentration 10 μM; for viability at 48 h, 100 µM: compound concentration 100 μM
Method in brief: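 After 48 h drug treatment, cells in DMEM/Medium 199 (4:1) with 10% FBS were given MTT (5 mg/ml stock) in serum-free medium for 4 h at 37 °C, lysed overnight in 20% SDS/50% DMF, and absorbance read at 570 nm.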

hTERT expression = experiment: SEAP assay in hTERT-BJ1-PTERT(3.4)-SEAP cells; format: cell-based; conditions: Homo sapiens, read-out: SEAP (Inhibition μM ± SD)
Method: A total of 2×10^3 hTERT-BJ1-PTERT(3.4)-SEAP cells were seeded in the 96-well cell culture plate, and incubated with DMEM (GIBCO®)/glucose mixture and Medium 199 (GIBCO®)/10% FBS/1 mM sodium pyruvate (GIBCO®)/4 mM L-glutamine (GIBCO®) mixture at a ratio of 4:1 at 37° C. for 24 hours. When the cells were attached in the bottom of the well, the seriously-diluted compounds with different concentrations ([…]) were treated with the cells for 48 hours, and the PTERT(3.4)-SEAP cells without drug treatment were being the control. After 48 hours of drug treatment, the cultured medium were collected for performing the analysis of SEAP activity. The cells were washed with 1×PBS once immediately, and the MTT assay was performed to compare the compounds with the relative toxicity or the influence to the proliferation and activity.
The cellular medium after the cellular incubation was transferred into the eppondorf tube, and the activity of endogeneous alkaline phosphatase was inactivated at 65° C. for 10 minutes. After centrification, the mixture was obtained by mixing 50 μl of the supernatant with the equal volume of the SEAP buffer. The mixture and the substrate (120 mM of p-nitrophenylphosphate) were preheated at 37° C. for 10 minutes respectively, and the mixture and the substrate were mixed at a ratio of 1:10 and reacted at 37° C. The absorbance of visible light at 405 nm was determined at the appropriate time intervals, and the enzymatic activity of SEAP was represented by the speed of the increasing absorbance at 405 nm.

[1] = BJ1, compound concentration 10 μM
[2] = BJ1, compound concentration 100 μM
[3] = BJ1, compound concentration 1 μM

| Compound | viability at 24 h, 1 µM (MTT assay in H1299 cells) | viability at 24 h, 10 µM (MTT assay in H1299 cells) | viability at 24 h, 100 µM (MTT assay in H1299 cells) | viability at 48 h, 1 µM (MTT assay in BJ1 cells) | viability at 48 h, 10 µM (MTT assay in BJ1 cells) | viability at 48 h, 100 µM (MTT assay in BJ1 cells) | activity at 1 µM (hTERT expression) | activity at 10 µM (hTERT expression) | activity at 100 µM (hTERT expression) | melting point | activity at 10 µM (hTERT expression; [1]) | activity at 100 µM (hTERT expression; [2]) | activity at 1 µM (hTERT expression; [3]) |
| --- | --- | --- | --- | --- | --- | --- | --- | --- | --- | --- | --- | --- | --- |
| CN(C)CCC(=O)Nc1ccc2c(c1)C(=O)c1cc(NC(=O)CCN(C)C)ccc1C2=O [Compound 20, 2,7-Bis[3-(dimethylamino)propionamido]anthraquinone] | 1 ± 104% | 53 ± 13% | 1 ± 1% | 94 ± 7% | 30 ± 14% | 22 ± 13% | 86 ± 2% | 61 ± 2% | 38% | 196 °C | – | – | – |
| CCNCCC(=O)Nc1ccc2c(c1)C(=O)c1cc(NC(=O)CCNCC)ccc1C2=O [Compound 22, 2,7-Bis[3-(ethylamino)propionamido]anthraquinone] | 86 ± 10% | 59 ± 3% | 34 ± 7% | 82 ± 2% | 73 ± 3% | 42 ± 1% | 211 ± 38% | 217 ± 133% | 97 ± 87% | 181 °C | – | – | – |
| CN1CCN(CCC(=O)Nc2ccc3c(c2)C(=O)c2cc(NC(=O)CCN4CCN(C)CC4)ccc2C3=O)CC1 [Compound 23, 2,7-Bis[3-(N-methylpiperazino)propionamido]anthraquinone] | 95 ± 18% | 80 ± 15% | 39 ± 6% | 95 ± 2% | 80 ± 2% | 61 ± 1% | – | – | – | 284 °C | 138 ± 115% | 232 ± 66% | – |
| O=C(CCN1CCNCC1)Nc1ccc2c(c1)C(=O)c1cc(NC(=O)CCN3CCNCC3)ccc1C2=O [Compound 24, 2,7-Bis[3-(piperazino)propionamido]anthraquinone] | 97 ± 8% | 94 ± 8% | 102 ± 13% | 96 ± 2% | 100 ± 3% | 88 ± 4% | – | – | – | 218 °C | 118 ± 26% | 131 ± 29% | 163 ± 22% |
| O=C(CCCCl)Nc1ccc2c(c1)C(=O)c1cc(NC(=O)CCCCl)ccc1C2=O [Compound 25, 2,7-Bis(4-chlorobutyramido)anthraquinone] | 84 ± 18% | 40 ± 2% | 22 ± 2% | 72 ± 3% | 62 ± 2% | 58 ± 3% | – | – | – | 234 °C | 42 ± 45% | 75 ± 16% | 13 ± 58% |
| CC(=O)Nc1ccc2c(c1)C(=O)c1cc(NC(C)=O)ccc1C2=O [Compound 26, 2,7-Bis(acetamido)anthraquinone] | 117 ± 15% | 83 ± 13% | 55 ± 11% | 106 ± 1% | 91 ± 2% | 91 ± 2% | 123 ± 5% | 117 ± 3% | 117 ± 5% | 340 °C | – | – | – |
| CCC(=O)Nc1ccc2c(c1)C(=O)c1cc(NC(=O)CC)ccc1C2=O [Compound 27, 2,7-Bis(propionamido)anthraquinone] | 70 ± 25% | 38 ± 17% | 35 ± 15% | 77 ± 2% | 57 ± 2% | 48 ± 2% | – | – | – | 291 °C | 64 ± 8% | 51 ± 8% | 78 ± 10% |
| O=C(Nc1ccc2c(c1)C(=O)c1cc(NC(=O)c3ccccc3)ccc1C2=O)c1ccccc1 [Compound 29, 2,7-Bis(benzoamido)anthraquinone] | 71 ± 24% | 47 ± 13% | 41 ± 30% | 92 ± 2% | 85 ± 2% | 97 ± 3% | – | – | – | 224 °C | 72 ± 8% | 36 ± 13% | 89 ± 2% |
| O=C(Cc1ccccc1)Nc1ccc2c(c1)C(=O)c1cc(NC(=O)Cc3ccccc3)ccc1C2=O [Compound 30, 2,7-Bis(phenylacetamido)anthraquinone] | 106 ± 12% | 96 ± 17% | 75 ± 22% | 93 ± 2% | 80 ± 3% | 86 ± 4% | – | – | – | 224 °C | 79 ± 6% | 40 ± 15% | 85 ± 8% |
| O=C(CCc1ccccc1)Nc1ccc2c(c1)C(=O)c1cc(NC(=O)CCc3ccccc3)ccc1C2=O [Compound 31, 2,7-Bis(phenylpropionamido)anthraquinone] | 102 ± 11% | 94 ± 13% | 76 ± 18% | 89 ± 2% | 44% | 44 ± 1% | – | – | – | 268 °C | 92 ± 45% | 43 ± 75% | 74 ± 29% |
| O=C1c2ccc(NC(=O)C3CCCCC3)cc2C(=O)c2cc(NC(=O)C3CCCCC3)ccc21 [Compound 34, 2,7-Bis(cyclohexanecarbonamido)anthraquinone] | 90 ± 3% | 63 ± 13% | 52 ± 16% | 87 ± 2% | 76 ± 3% | 64 ± 2% | – | – | – | 269 °C | 14 ± 53% | 22 ± 7% | 14 ± 67% |
